Assay results as given in US9023821B2, “Use of MicroRNA for treating diseases associated with a dysfunction of the cilia in multiciliated epithelial cells” (Centre National de la Recherche Scientifique, priority 2009, dated 2015).

Tests used:
[1] = tested on: human airway epithelial cells (HAECs); assay: High-throughput sequencing (HTS) of miRNAs at four stages of differentiation of HAECs; settings: for Modulation (ratio of the level of intensity of expression in log2 in two stages of differentiation) measured by high-throughput sequencing, D7 − D0 / Modulation (ratio of the level of intensity of expression in log2 in two stages of differentiation) measured by high-throughput sequencing, FC − D7 / Modulation (ratio of the level of intensity of expression in log2 in two stages of differentiation) measured by high-throughput sequencing, WD − D0 / Modulation (ratio of the level of intensity of expression in log2 in two stages of differentiation) measured by high-throughput sequencing, WD − FC / Level of intensity of expression in log2 measured by high-throughput sequencing, D0 / Level of intensity of expression in log2 measured by high-throughput sequencing, D7 / Level of intensity of expression in log2 measured by high-throughput sequencing, FC / Level of intensity of expression in log2 measured by high-throughput sequencing, WD: Table VI; for Level of intensity of expression in log2 At the differentiated stage (WD) measured in HTS: healthy human airway epithelial tissue; for Level of intensity of expression in log2 measured by high-throughput sequencing, D0: stage D0; for Level of intensity of expression in log2 measured by high-throughput sequencing, D7: stage D7; for Level of intensity of expression in log2 measured by high-throughput sequencing, FC: stage FC; for Level of intensity of expression in log2 At the differentiated stage (WD) measured in HTS / Level of intensity of expression in log2 measured by high-throughput sequencing, WD: stage WD
Description: The total RNAs were extracted from HAECs cultivated at the air-liquid interface at four stages of differentiation: ALI-D0 (0 day), ALI-D7 (7 days), ALI-FC (during appearance of the first cilia at about 14 days) and ALI-WD (wholly differentiated at about 21 days). The cells are lysed in reagent with Trizol® (Invitrogen). The total RNAs containing small RNAs and microRNAs are purified on Qiagen RNEasy columns (Qiagen) according to the supplier's instructions.
The total RNAs containing small RNAs and microRNAs are isolated as before. The procedure is based on the Applied Biosystems Ligase-Enhanced Genome Detection technology (LEGenD™); the SOLiD™ Small RNA Expression kit (Applied Biosystems, France) was used. With this method it is possible to convert the small RNAs of a sample into a library of double-stranded DNA; it was developed by Applied Biosystems SOLiD™ System for a new generation of high-throughput sequencing.
The high-throughput sequencing of the microRNAs was carried out according to the supplier's recommendations. Briefly, the total RNAs containing the small RNAs are hybridized (65° C., 10 min, then at 16° C., 5 min) and ligated (16° C., 2-16 h in a thermocycler) with the Adaptor Mix A for producing a matrix for sequencing the 5′ end of the small RNAs, or with the Adaptor Mix B for sequencing the 3′ end. The samples are then reverse-transcribed (42° C., 30 min) to synthesize the complementary DNA (cDNA). The library of small RNAs is amplified by PCR and after migration on polyacrylamide gel the amplified small RNAs are cut out and extracted from the gel according to their size (length of about 105-150 bases, according to the supplier's instructions), eluted and resuspended in nuclease-free water. The concentration of nucleic acids is then measured and normalized before proceeding with preparation of the samples for sequencing.
For each microRNA sequenced, the number of sequences of the 5p strand and of the 3p strand of the microRNA was normalized to 10^6 sequences and converted to percentage abundance of expression for each of the microRNAs. The data were then normalized according to a linear model and an empirical Bayesian method using software R. For subsequent analyses, only the microRNAs were retained for which the percentage expression (or abundance) is greater than 1% of the total of the microRNAs in at least one culture condition, with a |Log2 Ratio| below 0.5 and an adjusted P-value below 0.05.

[2] = tested on: human airway epithelial cells (HAECs); assay: Agilent miRNA chips, miRNA expression at four stages of differentiation of HAECs; settings: for Modulation (ratio of the level of intensity of expression in log2 in two stages of differentiation) measured with the Agilent chips, D7 − D0 / Modulation (ratio of the level of intensity of expression in log2 in two stages of differentiation) measured with the Agilent chips, FC − D7 / Modulation (ratio of the level of intensity of expression in log2 in two stages of differentiation) measured with the Agilent chips, WD − D0 / Modulation (ratio of the level of intensity of expression in log2 in two stages of differentiation) measured with the Agilent chips, WD − FC / Level of intensity of expression in log2 measured with the Agilent chips, D0 / Level of intensity of expression in log2 measured with the Agilent chips, D7 / Level of intensity of expression in log2 measured with the Agilent chips, FC / Level of intensity of expression in log2 measured with the Agilent chips, WD: Table VI; for Modulation (ratio of the level of intensity of expression in log2 at two stages of differentiation), FC − D7 / Modulation (ratio of the level of intensity of expression in log2 at two stages of differentiation), WD − FC: Agilent miRNA chips, Table V; for Level of intensity of expression in log2 measured with the Agilent chips, D0: stage D0; for Level of intensity of expression in log2 measured with the Agilent chips, D7: stage D7; for Level of intensity of expression in log2 measured with the Agilent chips, FC: stage FC; for Level of intensity of expression in log2 measured with the Agilent chips, WD: stage WD
Description: In parallel with the high-throughput sequencing of the microRNAs, the repertoire of expression of the microRNAs (microRNAome) is investigated using the technology of Agilent® microRNA chips. For this, RNA samples from the same patients as before were used, labeled and hybridized on Agilent® miRNA chips (Human miRNA Microarray v2, containing 866 human miRNAs and 89 human viral miRNAs, i.e. all the human miRNAs contained and referenced in Sanger miRBase v.12.0, Agilent Technologies, France) using the “miRNA labeling and hybridization” kit, following the supplier's instructions (Agilent Technologies).
The inventors then used the Agilent miRNA chips to investigate the repertoire of expression of the miRNAs of the human airway epithelium and compare the results obtained in high-throughput sequencing with those obtained with Agilent® commercial miRNA chips.

[3] = tested on: basal cells and pyramidal cells of the airway epithelium; assay: miRNA expression in sorted basal cells versus pyramidal cells (ciliated + secretory), HTS and Agilent chips; set-up: species or system human; settings: for Modulation of expression of the miRNAs in pyramidal cells (323(−)) relative to basal cells 323(+): HTS and Agilent chips; for Intensity of the level of expression in log2 in pyramidal cells (323(−)): pyramidal cells (ciliated + secretory)
Description: After dissociation of the stroma of nasal polyps, the epithelial cells (about 20.10^6) are incubated in PBS-BSA-EDTA for 30 min and then incubated with labeled antibody CD151-PE and anti-TF (tissue factor)-FITC for 20 min, 4° C. (see Hajj, R. et al., Stem Cells 25, 139-148 (2007)). After washing twice, the cells are taken up in PBS-EDTA and incubated with DAPI for labeling the cells whose integrity has been altered.
Cell sorting was carried out on the FACSAria sorter (BD Biosciences) equipped with 3 lasers, blue, red and violet. Dead cells, aggregates and double cells were excluded. The doubly positive population of basal cells (CD151+/FT+) and the negative population of cylindrical cells (containing ciliated cells and mucus-secreting cells) (CD151−/FT−) were selected and sorted at a rate of 5000 events/s ([…]). The purity and identity of the sorted cells were then verified by cytometry and immunocytochemistry.
Like the native airway epithelium, the model of differentiation in vitro used in these tests consists of basal cells, ciliated cells and mucus-secreting cells. In order to identify the repertoires of the miRNAs specific to each of the cellular types, the inventors used cell sorting by flow cytometry by means of specific markers (Hajj, R. et al. 2007). Using this technique, adult airway progenitor cells (corresponding a priori to basal cells) were isolated, selected and sorted (such cells appear doubly positive for tetraspanin CD151 and for the tissue factor) from the pyramidal cells (i.e. ciliated cells and mucus-secreting cells) which appear negative for these same markers. These were purified from polyps or from nasal conchae obtained from 3 separate donors.
After extracting the total RNAs, the expression profiles of the miRNAs were established by means of Agilent® commercial chips or by high-throughput sequencing (HTS). […] For the first time, the inventors thus attribute a repertoire of expression of the miRNAs specifically to separate cellular types of the airway epithelium during differentiation.

Substance | Modulation (ratio of the level of intensity of expression in log2 in two stages of differentiation) measured by high-throughput sequencing, D7 − D0 [1] [log2] | Modulation (ratio of the level of intensity of expression in log2 in two stages of differentiation) measured by high-throughput sequencing, FC − D7 [1] [log2] | Modulation (ratio of the level of intensity of expression in log2 in two stages of differentiation) measured by high-throughput sequencing, WD − D0 [1] [log2] | Modulation (ratio of the level of intensity of expression in log2 in two stages of differentiation) measured by high-throughput sequencing, WD − FC [1] [log2] | Level of intensity of expression in log2 At the differentiated stage (WD) measured in HTS [1] [log2] | Level of intensity of expression in log2 measured by high-throughput sequencing, D0 [1] [log2] | Level of intensity of expression in log2 measured by high-throughput sequencing, D7 [1] [log2] | Level of intensity of expression in log2 measured by high-throughput sequencing, FC [1] [log2] | Level of intensity of expression in log2 measured by high-throughput sequencing, WD [1] [log2] | Modulation (ratio of the level of intensity of expression in log2 in two stages of differentiation) measured with the Agilent chips, D7 − D0 [2] [log2] | Modulation (ratio of the level of intensity of expression in log2 at two stages of differentiation), FC − D7 [2] [log2] | Modulation (ratio of the level of intensity of expression in log2 in two stages of differentiation) measured with the Agilent chips, FC − D7 [2] [log2] | Modulation (ratio of the level of intensity of expression in log2 in two stages of differentiation) measured with the Agilent chips, WD − D0 [2] [log2] | Modulation (ratio of the level of intensity of expression in log2 at two stages of differentiation), WD − FC [2] [log2] | Modulation (ratio of the level of intensity of expression in log2 in two stages of differentiation) measured with the Agilent chips, WD − FC [2] [log2] | Level of intensity of expression in log2 measured with the Agilent chips, D0 [2] [log2] | Level of intensity of expression in log2 measured with the Agilent chips, D7 [2] [log2] | Level of intensity of expression in log2 measured with the Agilent chips, FC [2] [log2] | Level of intensity of expression in log2 measured with the Agilent chips, WD [2] [log2] | Modulation of expression of the miRNAs in pyramidal cells (323(−)) relative to basal cells 323(+) [3] | also measured
hsa-miR-429: human miRNA, SEQ ID No. 45 (UAAUACUGUCUGGUAAAACCGU; expressed or natural sequence; listed as Homo sapiens) | 0.42 | 0.14 | 1.30 | 0.74 | 15.11 | 8.23 | 8.65 | 8.79 | 9.53 | 1.71 | 0.14 | 0.14 | 1.95 | 0.10 | 0.10 | 7.97 | 9.68 | 9.82 | 9.93 | −0.31 | Intensity of the level of expression in log2 in basal cells (323(+)) [3]: 6.92 log2; Intensity of the level of expression in log2 in pyramidal cells (323(−)) [3]: 6.61 log2
hsa-miR-34c-5p: human miRNA, SEQ ID No. 40 (AGGCAGUGUAGUUAGCUGAUUGC; expressed or natural sequence; listed as Homo sapiens) | 1.33 | 4.02 | 6.41 | 1.06 | 0.01 | 7.88 | 9.21 | 13.23 | 14.29 | 2.35 | 4.27 | 4.27 | 7.44 | 0.82 | 0.82 | 3.94 | 6.29 | 10.56 | 11.39 | 5.74 | Modulation (ratio of the level of intensity of expression in log2 in two stages of differentiation), D7 − D0 ([1]; HTS): 1.33 log2; Modulation (ratio of the level of intensity of expression in log2 in two stages of differentiation), FC − D7 ([1]; HTS): 4.02 log2; Modulation (ratio of the level of intensity of expression in log2 in two stages of differentiation), WD − FC ([1]; HTS): 1.06 log2; Abundance (%), D0 ([1]; HTS, ALI-D0): 0.05%; Abundance (%), D7 ([1]; HTS, ALI-D7): 0.13%; Abundance (%), FC ([1]; HTS, ALI-FC): 2.05%; Abundance (%), WD ([1]; HTS, ALI-WD): 3.23%; Intensity of the level of expression in log2 in basal cells (323(+)) [3]: 4.75 log2; Intensity of the level of expression in log2 in pyramidal cells (323(−)) [3]: 10.49 log2
